Measurements: US20070059687A1, “Process for evaluating phagocytotic function and use thereof” (priority 2001, published 2007)

Legend:
[1] = tested on: Staphylococcus epidermidis; test: Lysis evaluated by decrease in turbidity at 600 nm; type: cell-based; settings: for Decrease in turbidity of bacteria: lysostafin 50 unit/ml
Text: (§1) Conditions for the enzyme to lyse Staphylococcus aureus (ATCC 12600), Staphylococcus epidermidis (ATCC 14990), Pseudomonas aeruginosa (ATCC 10145), Enterococcus faecalis (ATCC 19433) and Escherichia coli (ATCC 11775) were studied. For Staphylococcus aureus and Staphylococcus epidermidis, lysostafin was used as the lytic enzyme (Bur. J. Biochem., 38, 293-300, 1973). […] Further, for Pseudomonas aeruginosa and Escherichia coli, PBS containing 70 mmol/l sodium hydroxide was used. Each type of these bacteria was inoculated in 5 ml of BHI (Brain Heart Infusion) liquid medium (manufactured by DIFCO), and cultured at 37° C. for 8 hours or longer. Thus cultured bacterial liquid was collected by centrifugation at 4° C. for 10 minutes at 2,000×g. The collected bacteria were suspended in PBS to give a sample.
Lysis was evaluated by decrease in turbidity of the bacterial liquid at the absorbance of 600 nm using a microplate reader. Consequently, Staphylococcus aureus and Staphylococcus epidermidis were lysed by lysostafin. In respect of Pseudomonas aeruginosa and Escherichia coli, no enzymatic treatment was required because lysis was conducted with PBS containing 70 mmol/l sodium hydroxide. […] Moreover, when the bacterium incorporated upon phagocytotic action is for example, Pseudomonas aeruginosa, Escherichia coli or the like, bacterial cell wall is lysed during the alkaline treatment to result in the state in which the gene is exposed. Therefore, it is not necessary to conduct this enzymatic treatment. Each enzyme for the pretreatment which is used in lysis of the foreign microorganism according to the present invention is effective not only for the aforementioned bacterial strain, but also for other bacterial strain that includes other genus staphylococcus, genus streptococcus, genus bacillus, genus micrococcus and the like. […] The results are illustrated in FIG. 3, specifically, in regard to: (a) Staphylococcus aureus and Staphylococcus epidermidis, (b) Pseudomonas aeruginosa and Escherichia coli, and (c) Enterococcus faecalis.
Enterococcus faecalis was inoculated in 50 ml of the aforementioned BHI liquid medium, and cultured at 37° C. for 8 hours or longer. This culture liquid was centrifuged at 4° C. for 10 minutes at 2,000×g to collect the bacteria, followed by subjecting to a heat treatment in an autoclave (120° C., for 10 minutes) after suspending in PBS. Next, the suspension was centrifuged at 4° C. for 10 minutes at 2,000×g, and the supernatant was discarded. Precipitates were suspended in 1 ml of PBS, and thereafter, subjected to freeze-drying. This freeze-dried sample was suspended in 5 mmol/l Tris-hydrochloric acid (pH 6.0), 2 mmol/l magnesium chloride containing 0 to 10% DMSO to give the samples for N-acetylmuramidase. Further, Micrococcus luteus (JCM1464) was inoculated in 5 ml of BHI liquid medium (supra), and cultured at 37° C. for 8 hours or longer. The cultured bacterial liquid was centrifuged at 4° C. for 10 minutes at 2,000×g to collect the bacteria. After discarding the supernatant, and suspending and washing the bacterial pellet with 5 ml of PBS, centrifugation was conducted once again at 4° C. for 10 minutes at 2,000×g to collect the bacteria. […] Enzymatic activity was evaluated on the basis of the decrease in turbidity of the sample at the absorbance of 600 nm using a microplate reader. […] Additionally, no decrease in enzymatic activity was found with DMSO at the concentration of 2% or less. […] The results are show in FIG. 4(a) to (c) and Table 3 below.

[2] = tested on: Staphylococcus aureus; test: Lysis evaluated by decrease in turbidity at 600 nm; type: cell-based; settings: FIG. 3(a)
Text: as §1, with “sample. Lysis was evaluated by decrease in turbidity of the bacterial liquid at the absorbance of 600 nm using a microplate reader. Consequently, Staphylococcus aureus and Staphylococcus epidermidis were lysed by lysostafin. In respect of Pseudomonas aeruginosa and Escherichia coli, no enzymatic treatment was required because lysis was conducted with PBS containing 70 mmol/l sodium hydroxide. […]” for “sample.”

[3] = tested on: SA digested sample; test: Enzymatic treatment of digested sample, bacterial bodies in leukocytes by acridine orange staining; type: cell-based, Staphylococcus aureus; parameters: key to enzymatic treatment determination: The determination was made as adequate when no bacterial body was identified in the leukocytes by the enzymatic treatment; settings: for enzymatic treatment determination: SA digested sample, once, twice, thrice
Procedure: (§2) Using the slide glass having each digested sample smeared thereon, the enzymatic pretreatment was performed according to the process described in Example 3. Next, the slide glass after completing the enzymatic pretreatment was placed in a humid box, and the reaction was allowed by dropping 1 ml of each enzyme solution prepared to give each titer on the smeared site of the specimen. Thereafter, the slide glass was immersed in PBS containing 0.2 mol/l hydrochloric acid, and in 70% ethanol respectively, for 10 minutes, and air dried. After immersing this slide glass in PBS containing 70 mmol/l sodium hydroxide for 3 minutes, and in 70% ethanol for 10 minutes, it was air dried and stained with 1% acridine orange staining solution. Then, evaluation was made with a fluorescence microscope (×1,000). For Staphylococcus aureus and Staphylococcus epidermidis, examination of the optimal titer was conducted with lysostafin. […] The determination was made as adequate when no bacterial body was identified in the leukocytes by the enzymatic treatment.
(§3) Using a slide glass including each digested sample smeared thereon, examination was conducted according to the process described in example 17 (2). Time period of the enzymatic treatment in this test was 30 minutes, and the temperature for examination was 4° C., 25° C., 37° C., 42° C., and 60° C.
(§4) Using the slide glass including each digested sample smeared thereon, examination was conducted according to the process described in example 17 (2). […] Determination was conducted according to the process described in example 17 (2). As a consequence, for all of Staphylococcus aureus, Staphylococcus epidermidis and Enterococcus faecalis digested samples, no bacterial body was found in the leukocytes with the time period of the enzymatic treatment of 20 minutes or longer (inadequate at 0 minute and 10 minutes). Therefore, the optimal time period of the enzymatic treatment is at least 15 minutes or longer, preferably 20 minutes or longer, and still preferably 30 minutes to 60 minutes.

[4] = tested on: SE digested sample; test: as above; type: cell-based, Staphylococcus epidermidis; parameters: key to enzymatic treatment determination: The determination was made as adequate when no bacterial body was identified in the leukocytes by the enzymatic treatment; settings: for enzymatic treatment determination: SE digested sample, once, twice, thrice
Procedure: as §2, §3, §4

Q: Which results are given for “Lysostafin: lytic enzyme used for Staphylococcus aureus and Staphylococcus epidermidis”?
A: lysis ([1]; FIG. 3(a)): lysed; Decrease in turbidity of bacteria ([1]; added DMSO 0 % (control)): 0.168 ± 0.017 O.D./10 minutes; Decrease in turbidity of bacteria ([1]; added DMSO 0.1 %): 0.164 ± 0.009 O.D./10 minutes; Decrease in turbidity of bacteria ([1]; added DMSO 1 %): 0.160 ± 0.008 O.D./10 minutes; Decrease in turbidity of bacteria ([1]; added DMSO 2 %): 0.145 ± 0.009 O.D./10 minutes; Decrease in turbidity of bacteria ([1]; added DMSO 5 %): 0.124 ± 0.006 O.D./10 minutes; Decrease in turbidity of bacteria ([1]; added DMSO 10 %): 0.094 ± 0.006 O.D./10 minutes; lysis [2]: lysed; enzymatic treatment determination ([3]; lysostafin titer 0.1 U/mL): Inadequate; enzymatic treatment determination ([3]; lysostafin titer 1 U/mL): adequate; enzymatic treatment determination ([3]; lysostafin titer 10 U/mL): adequate; enzymatic treatment determination ([3]; lysostafin titer 100 U/mL): adequate; enzymatic treatment determination ([3]; lysostafin titer 1,000 U/mL): adequate; titer at which sufficient effects were exerted ([3]; lysis of Staphylococcus aureus): 1 unit/ml; enzymatic treatment determination ([4]; lysostafin titer 0.1 U/mL): inadequate; enzymatic treatment determination ([4]; lysostafin titer 1 U/mL): inadequate; enzymatic treatment determination ([4]; lysostafin titer 10 U/mL): adequate; enzymatic treatment determination ([4]; lysostafin titer 100 U/mL): adequate; enzymatic treatment determination ([4]; lysostafin titer 1,000 U/mL): adequate; titer necessary for lysis ([4]; lysis of Staphylococcus epidermidis): ≥ 10 unit/ml
